The record followed here is patent US20220089592A1, “IMIDAZO[1,2-A]PYRIDINYL DERIVATIVES AS IRAK4 INHIBITORS” (priority 2019, published 2022).

In experiment [1] the target is T1, IRAK4 (Homo sapiens, UniProt Q9NWZ3).
T1 sequence (Q9NWZ3 1-460): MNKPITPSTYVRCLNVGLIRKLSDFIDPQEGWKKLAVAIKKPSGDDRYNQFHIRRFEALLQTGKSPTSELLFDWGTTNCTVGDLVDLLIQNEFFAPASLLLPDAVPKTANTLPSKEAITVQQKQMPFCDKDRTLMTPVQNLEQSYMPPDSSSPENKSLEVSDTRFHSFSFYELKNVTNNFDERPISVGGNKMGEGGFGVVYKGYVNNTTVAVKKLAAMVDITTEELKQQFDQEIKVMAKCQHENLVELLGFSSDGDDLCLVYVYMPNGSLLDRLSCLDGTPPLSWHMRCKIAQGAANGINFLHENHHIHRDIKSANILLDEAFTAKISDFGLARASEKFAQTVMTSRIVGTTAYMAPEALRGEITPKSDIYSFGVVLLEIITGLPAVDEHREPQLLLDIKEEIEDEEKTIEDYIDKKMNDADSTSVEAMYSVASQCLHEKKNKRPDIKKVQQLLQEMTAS
Put plainly: 2-hour 10 μM ATP Biochemical Assay (MesoScale Detection format; IRAK4 phosphorylation of biotin labeled IRAK1 activation loop peptide). Particulars: IRAK4 MSD BIOCHEMICAL (10 μM ATP) IC50 (μM), 1 nM IRAK4, 2 hours. The essentials:
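Kinase reaction run 2 h at 10 μM ATP with biotinylated IRAK1 activation-loop peptide, quenched with EDTA. Phospho-peptide captured on streptavidin MSD plates and detected with anti-phosphothreonine rabbit antibody plus Sulfo-Tag anti-rabbit electrochemiluminescence.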

Experiment [2] deals with T1, IRAK4. Nature of the experiment: 2-hour 1 mM ATP IRAK4 Biochemical assay (as above, but with 100 pM IRAK4 and 1 mM ATP). Particulars: IRAK4 MSD BIOCHEMICAL (1 mM ATP) IC50 (μM), 100 pM IRAK4, 2 hours. The essentials:
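Run with 100 pM IRAK4 and 1 mM ATP for 2 hours, quenched with EDTA pH 8. Phosphorylated biotinylated peptide captured on streptavidin MSD plates and detected with anti-phosphothreonine antibody plus Sulfo-Tag secondary by electrochemiluminescence.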

Structures are written as SMILES. Structures can show the parent of a compound that is named as a salt.

On to `N#CC1CCC(Oc2cc3nc(C4CCOCC4)cn3cc2NC(=O)c2cccc(C(F)F)n2)C1` (stereo not drawn) [Example 179, N-(7-((3-cyanocyclopentyl)oxy)-2-(tetrahydro-2H-pyran-4-yl)imidazo[1,2-a]pyridin-6-yl)-6-(difluoromethyl)picolinamide], for which the concentration for half-maximal inhibition (IC50) against IRAK4 [1] and against IRAK4 [2] was 0.001 µM throughout.
For `CCOc1cc2nc(C3CCOCC3)cn2cc1NC(=O)c1cnc2c(c1)CCO2` [Example 240, N-(7-ethoxy-2-(tetrahydro-2H-pyran-4-yl)imidazo[1,2-a]pyridin-6-yl)-2,3-dihydrofuro[2,3-b]pyridine-5-carboxamide], the results for the IC50 against IRAK4 [1] and against IRAK4 [2] were 0.006 µM and 0.019 µM, respectively.
For `CCOc1cc2nc(COC)cn2cc1NC(=O)c1cccc(C(F)(F)F)n1` [Example 56, N-(7-ethoxy-2-(methoxymethyl)imidazo[1,2-a]pyridin-6-yl)-6-(trifluoromethyl)picolinamide], the 50% inhibitory concentration (IC50) at IRAK4 [1] turned out to be 0.005 µM; at IRAK4 [2] it was 0.014 µM.
For `CCOc1cc2nc(CC3CCCO3)cn2cc1NC(=O)c1cccc(C(F)(F)F)n1` (stereo not drawn) [Example 60, N-(7-ethoxy-2-((tetrahydrofuran-2-yl)methyl)imidazo[1,2-a]pyridin-6-yl)-6-(trifluoromethyl)picolinamide], in that order: 0.002 µM and 0.006 µM.
Consider `CCOc1cc2nc(C3CN(C)C3)cn2cc1NC(=O)c1cccc(C(F)(F)F)n1` [Example 65, N-(7-ethoxy-2-(1-methylazetidin-3-yl)imidazo[1,2-a]pyridin-6-yl)-6-(trifluoromethyl)picolinamide], for which the IC50 against IRAK4 [1] and at IRAK4 [2] was 0.001 µM throughout.
Regarding `CCOc1cc2nc(C3CCOCC3)cn2cc1NC(=O)c1cccc(OC)n1` [Example 133, N-(7-ethoxy-2-(tetrahydro-2H-pyran-4-yl)imidazo[1,2-a]pyridin-6-yl)-6-methoxypicolinamide], the IC50 at IRAK4 [1] amounted to 0.002 µM; on IRAK4 [2], 0.004 µM.
For the compound `CCOc1cc2nc(C3CCOCC3)cn2cc1NC(=O)c1cccc(OC(C)C)n1` [Example 220, N-(7-ethoxy-2-(tetrahydro-2H-pyran-4-yl)imidazo[1,2-a]pyridin-6-yl)-6-isopropoxypicolinamide], the IC50 on IRAK4 [1] was found to be 0.004 µM; against IRAK4 [2], 0.02 µM.
In the case of `O=C(Nc1cn2cc(C3CC3)nc2cc1N1CCN(CC(F)F)CC1)c1cccc(C(F)(F)F)n1` [Example 24, N-(2-cyclopropyl-7-(4-(2,2-difluoroethyl)piperazin-1-yl)imidazo[1,2-a]pyridin-6-yl)-6-(trifluoromethyl)picolinamide], the IC50 amounted to 0.002 µM against IRAK4 [1] and 0.004 µM against IRAK4 [2].
For `O=C(Nc1cn2cc(C3CCOCC3)nc2cn1)c1cccc(C(F)F)n1` [Example 330, 6-(difluoromethyl)-N-(2-(tetrahydro-2H-pyran-4-yl)imidazo[1,2-a]pyrazin-6-yl)picolinamide] the same measures were 0.023 µM and 0.038 µM.
On to `CCOc1cc2nc(C3CCOCC3)cn2cc1NC(=O)c1cccc(OC)c1F` [Example 215, N-(7-ethoxy-2-(tetrahydro-2H-pyran-4-yl)imidazo[1,2-a]pyridin-6-yl)-2-fluoro-3-methoxybenzamide], for which the IC50 came out at 0.008 µM on IRAK4 [1] and 0.037 µM on IRAK4 [2].
For `COc1nc(NC(=O)c2ccn(C)n2)cn2cc(C3CCOCC3)nc12` [Example 461, N-(8-methoxy-2-(tetrahydro-2H-pyran-4-yl)imidazo[1,2-a]pyrazin-6-yl)-1-methyl-1H-pyrazole-3-carboxamide Hydrochloride], the figures for the IC50 against IRAK4 [1] and against IRAK4 [2] were 0.033 µM and 0.148 µM, respectively.
For `CCOc1cc2nc(C3CCOCC3)cn2cc1NC(=O)c1cccc(C)n1` [Example 224, N-(7-ethoxy-2-(tetrahydro-2H-pyran-4-yl)imidazo[1,2-a]pyridin-6-yl)-6-methylpicolinamide], in that order: 0.001 µM and 0.003 µM.
As for `C[C@@H]1C[C@@H](Oc2cc3nc(C4CCOCC4)cn3cc2NC(=O)c2cccc(C(F)F)n2)CCO1` (relative stereo) [Example 186, 6-(difluoromethyl)-N-(7-(((2R*,4S*)-2-methyltetrahydro-2H-pyran-4-yl)oxy)-2-(tetrahydro-2H-pyran-4-yl)imidazo[1,2-a]pyridin-6-yl)picolinamide], the half-maximal inhibitory concentration (IC50) against IRAK4 [1] and on IRAK4 [2] was 0.001 µM each time.
Take `CCOc1cc2nc(C(C)(F)F)cn2cc1NC(=O)c1cccc(C(F)F)n1` [Example 109, N-(2-(1,1-difluoroethyl)-7-ethoxyimidazo[1,2-a]pyridin-6-yl)-6-(difluoromethyl)picolinamide]: the IC50 is 0.002 µM against IRAK4 [1] and 0.003 µM against IRAK4 [2].
For `CCOc1cc2nc([C@H]3C[C@@H](OC(C)C)C3)cn2cc1NC(=O)c1cccc(C(F)F)n1` [Example 136, 6-(difluoromethyl)-N-(7-ethoxy-2-((1s,3s)-3-isopropoxycyclobutyl)imidazo[1,2-a]pyridin-6-yl)picolinamide] the same measures were 0.001 µM and 0.002 µM.
For `CCOc1cc2nc(C34CC(F)(C3)C4)cn2cc1NC(=O)c1cccc(C(F)F)n1` [Example 127, 6-(difluoromethyl)-N-(7-ethoxy-2-(3-fluorobicyclo[1.1.1]pentan-1-yl)imidazo[1,2-a]pyridin-6-yl)picolinamide], in that order: 0.001 µM and 0.003 µM.
For `CCOc1cc2nc(CC3CCOC3)cn2cc1NC(=O)c1cccc(OC)n1` (stereo not drawn) [Example 134, N-(7-ethoxy-2-((tetrahydrofuran-3-yl)methyl)imidazo[1,2-a]pyridin-6-yl)-6-methoxypicolinamide] the same measures were 0.002 µM and 0.009 µM.
For the compound `CCOc1cc2nc(C3CC34CCOC4)cn2cc1NC(=O)c1cccc(C(F)F)n1` (mixture of isomers) [Example 171, 6-(difluoromethyl)-N-(7-ethoxy-2-(5-oxaspiro[2.4]heptan-1-yl)imidazo[1,2-a]pyridin-6-yl)picolinamide], the IC50 on IRAK4 [1] stood at 0.002 µM; against IRAK4 [2], 0.004 µM.
For `CCOc1cc2nc(C3CC3)cn2cc1NC(=O)c1cccc(C(F)F)n1` [Example 3, N-(2-cyclopropyl-7-ethoxyimidazo[1,2-a]pyridin-6-yl)-6-(difluoromethyl)picolinamide], in that order: 0.006 µM and 0.009 µM.
For `CCOc1cc2nc(C3CCOCC3)cn2cc1NC(=O)c1csc(CC)n1` [Example 202, N-(7-ethoxy-2-(tetrahydro-2H-pyran-4-yl)imidazo[1,2-a]pyridin-6-yl)-2-ethylthiazole-4-carboxamide], in that order: 0.002 µM and 0.004 µM.
For `CCOc1nc2nc(C3CCOCC3)cn2cc1NC(=O)c1cccc(OC)n1` [Example 368, N-(7-ethoxy-2-(tetrahydro-2H-pyran-4-yl)imidazo[1,2-a]pyrimidin-6-yl)-6-methoxypicolinamide], in that order: 0.008 µM and 0.016 µM.
Take `CCOc1cc2nc(CCCOC)cn2cc1NC(=O)c1cccc(OC)n1` [Example 524, N-(7-ethoxy-2-(3-methoxypropyl)imidazo[1,2-a]pyridin-6-yl)-6-methoxypicolinamide]: the IC50 against IRAK4 [1] turned out to be 0.004 µM; on IRAK4 [2], 0.015 µM.
`CC1(COc2cc3nc(C4CCOCC4)cn3cc2NC(=O)c2cccc(C(F)(F)F)n2)COC1` [Example 166, N-(7-((3-methyloxetan-3-yl)methoxy)-2-(tetrahydro-2H-pyran-4-yl)imidazo[1,2-a]pyridin-6-yl)-6-(trifluoromethyl)picolinamide]: the IC50 came out at 0.002 µM on IRAK4 [1] and 0.009 µM against IRAK4 [2].
For `CCOc1cc2nc(CC3CCOC3)cn2cc1NC(=O)c1ccn(CC(F)(F)F)n1` (stereo not drawn) [Example 123, N-(7-ethoxy-2-((tetrahydrofuran-3-yl)methyl)imidazo[1,2-a]pyridin-6-yl)-1-(2,2,2-trifluoroethyl)-1H-pyrazole-3-carboxamide], in that order: 0.008 µM and 0.014 µM.
For `COCCOc1cc2nc(C3CC3)cn2cc1NC(=O)c1cccc(C(F)F)n1` [Example 101, N-(2-cyclopropyl-7-(2-methoxyethoxy)imidazo[1,2-a]pyridin-6-yl)-6-(difluoromethyl)picolinamide] the same measures were 0.006 µM and 0.029 µM.
`CCOCc1cn2cc(NC(=O)c3cccc(C(F)(F)F)n3)c(OCC)cc2n1` [Example 55, N-(7-ethoxy-2-(ethoxymethyl)imidazo[1,2-a]pyridin-6-yl)-6-(trifluoromethyl)picolinamide]: the IC50 against IRAK4 [1] worked out at 0.003 µM; against IRAK4 [2], 0.015 µM.
For `CCOc1cc2nc(C3CCOCC3)cn2cc1NC(=O)c1ccccc1OC` [Example 213, N-(7-ethoxy-2-(tetrahydro-2H-pyran-4-yl)imidazo[1,2-a]pyridin-6-yl)-2-methoxybenzamide], in that order: 0.005 µM and 0.019 µM.
